pIC50: −log10 of the molar value.
Assays:
[1] = Antitumor activity against human U87MG cells xenografted in nu/nu CD1 mouse model assessed as tumor growth inhibition at 50 mg/kg, po qd for 14 days; format: functional, U-87MG ATCC; conditions: U-87 MG, 336 h, read-out: TGI
Mus musculus [2] = test: Inhibition of cMET autophosphorylation at Y1234/1235 in human MKN45 cells xenografted in nu/nu CD1 mouse at 100 mg/kg, po qd for 14 days measured after 24 hrs of last dose; format: functional; conditions: MKN-45
Salmonella typhimurium [3] = test: Mutagenic activity in Salmonella typhimurium TA100 by Ames test in presence of liver S9 fraction; format: toxicity, organism-based; conditions: salmonella enterica subsp. enterica serovar typhimurium
Salmonella typhimurium [4] = test: Mutagenic activity in Salmonella typhimurium TA98 by Ames test in absence of liver S9 fraction; format: toxicity, organism-based; conditions: salmonella enterica subsp. enterica serovar typhimurium
Mus musculus [5] = test: Toxicity in human U87MG cells xenografted nu/nu CD1 mouse model assessed as body weigh loss at 100 mg/kg, po bid for 14 days; format: organism-based, U-87MG ATCC; design: dose 100 mg/kg, route oral; conditions: in vivo, 336 h
[6] = Antitumor activity against human U87MG cells xenografted in nu/nu CD1 mouse model assessed as tumor growth inhibition at 100 mg/kg, po bid for 14 days; format: functional, U-87MG ATCC; conditions: U-87 MG, 336 h, read-out: TGI
[7] = Antitumor activity against human U87MG cells xenografted in nu/nu CD1 mouse model assessed as tumor growth inhibition at 50 mg/kg, po bid for 14 days; format: functional, U-87MG ATCC; conditions: U-87 MG, 336 h, read-out: TGI
MKN-45 = test: Antitumor activity against human MKN45 cells xenografted in po dosed nu/nu CD1 mouse model assessed as tumor growth inhibition administered qd for 14 days; format: functional; conditions: MKN-45, po, 336 h
Mus musculus [8] = test: Inhibition of MET autophosphorylation at Y1234/1235 in human MKN45 cells xenografted in mouse at 100 mg/kg, po after 24 hrs; format: functional; conditions: MKN-45, 24 h
Aurora kinase B [9] = target: T1, Aurora kinase B (Homo sapiens, UniProt Q96GD4); test: Inhibition of aurora-B in human HT-29 cells assessed as phosphorylation of histone H3 at Ser10 in presence of mouse plasma; format: cell-based
Aurora kinase B [10] = target: T1, Aurora kinase B; test: Inhibition of aurora-B in human HT-29 cells assessed as phosphorylation of histone H3 at Ser10; format: cell-based
[11] = target: T2, Vascular endothelial growth factor receptor 2 (Homo sapiens, UniProt P35968); test: Inhibition of KDR autophosphorylation in HUVEC
Aurora kinase B [12] = target: T1, Aurora kinase B; test: Inhibition of aurora-B (unknown origin) autophosphorylation
[13] = target: T2, Vascular endothelial growth factor receptor 2; test: Inhibition of KDR (unknown origin) autophosphorylation
[14] = target: Macrophage-stimulating protein receptor (Homo sapiens, UniProt Q04912); test: Inhibition of RON (unknown origin) autophosphorylation
[15] = target: ALK tyrosine kinase receptor (Homo sapiens, UniProt Q9UM73); test: Inhibition of ALK (unknown origin) autophosphorylation
[16] = target: Hepatocyte growth factor receptor (Homo sapiens, UniProt P08581, Y1230C); test: Inhibition of cMET Y1230C mutant (unknown origin) autophosphorylation
[17] = Solubility of the compound at pH 3; format: physicochemical; conditions: buffer
[18] = Oral bioavailability in Sprague-Dawley rat at 20 mg/kg; format: ADME, organism-based; conditions: in vivo
[19] = Cmax in Sprague-Dawley rat at 20 mg/kg, po; format: ADME, organism-based; design: dose 20 mg/kg, route oral; conditions: in vivo
[20] = Half life in CD1 mouse at 2 mg/kg, iv; format: ADME, organism-based; design: dose 2 mg/kg, route intravenous; conditions: in vivo
[21] = Volume of distribution at steady state in CD1 mouse at 2 mg/kg, iv; format: ADME, organism-based; design: dose 2 mg/kg, route intravenous; conditions: in vivo, read-out: Vdss
[22] = Metabolic stability in mouse liver microsomes assessed as extraction ratio up to 40 mins by LC-MS/MS analysis; format: ADME, Microsome; conditions: read-out: ERH
[23] = Metabolic stability in human liver microsomes assessed as extraction ratio up to 40 mins by LC-MS/MS analysis; format: ADME, Microsome; conditions: read-out: ERH
SNU-5 = test: Antitumor activity against human SNU5 cells xenografted in nu/nu CD1 mouse model assessed as maximum tumor regression at 50 mg/kg, po qd for 20 days

T1 sequence (Q96GD4 whole entry): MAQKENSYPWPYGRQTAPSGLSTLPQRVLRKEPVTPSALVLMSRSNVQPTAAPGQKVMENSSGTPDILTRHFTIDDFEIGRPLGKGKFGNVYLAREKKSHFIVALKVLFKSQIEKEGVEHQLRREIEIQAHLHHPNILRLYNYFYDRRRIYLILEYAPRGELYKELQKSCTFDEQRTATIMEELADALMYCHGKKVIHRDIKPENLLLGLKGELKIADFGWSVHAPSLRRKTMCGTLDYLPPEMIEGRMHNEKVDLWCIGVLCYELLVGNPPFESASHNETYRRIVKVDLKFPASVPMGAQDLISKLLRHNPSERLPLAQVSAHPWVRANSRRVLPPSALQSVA
T2 sequence (P35968 whole entry): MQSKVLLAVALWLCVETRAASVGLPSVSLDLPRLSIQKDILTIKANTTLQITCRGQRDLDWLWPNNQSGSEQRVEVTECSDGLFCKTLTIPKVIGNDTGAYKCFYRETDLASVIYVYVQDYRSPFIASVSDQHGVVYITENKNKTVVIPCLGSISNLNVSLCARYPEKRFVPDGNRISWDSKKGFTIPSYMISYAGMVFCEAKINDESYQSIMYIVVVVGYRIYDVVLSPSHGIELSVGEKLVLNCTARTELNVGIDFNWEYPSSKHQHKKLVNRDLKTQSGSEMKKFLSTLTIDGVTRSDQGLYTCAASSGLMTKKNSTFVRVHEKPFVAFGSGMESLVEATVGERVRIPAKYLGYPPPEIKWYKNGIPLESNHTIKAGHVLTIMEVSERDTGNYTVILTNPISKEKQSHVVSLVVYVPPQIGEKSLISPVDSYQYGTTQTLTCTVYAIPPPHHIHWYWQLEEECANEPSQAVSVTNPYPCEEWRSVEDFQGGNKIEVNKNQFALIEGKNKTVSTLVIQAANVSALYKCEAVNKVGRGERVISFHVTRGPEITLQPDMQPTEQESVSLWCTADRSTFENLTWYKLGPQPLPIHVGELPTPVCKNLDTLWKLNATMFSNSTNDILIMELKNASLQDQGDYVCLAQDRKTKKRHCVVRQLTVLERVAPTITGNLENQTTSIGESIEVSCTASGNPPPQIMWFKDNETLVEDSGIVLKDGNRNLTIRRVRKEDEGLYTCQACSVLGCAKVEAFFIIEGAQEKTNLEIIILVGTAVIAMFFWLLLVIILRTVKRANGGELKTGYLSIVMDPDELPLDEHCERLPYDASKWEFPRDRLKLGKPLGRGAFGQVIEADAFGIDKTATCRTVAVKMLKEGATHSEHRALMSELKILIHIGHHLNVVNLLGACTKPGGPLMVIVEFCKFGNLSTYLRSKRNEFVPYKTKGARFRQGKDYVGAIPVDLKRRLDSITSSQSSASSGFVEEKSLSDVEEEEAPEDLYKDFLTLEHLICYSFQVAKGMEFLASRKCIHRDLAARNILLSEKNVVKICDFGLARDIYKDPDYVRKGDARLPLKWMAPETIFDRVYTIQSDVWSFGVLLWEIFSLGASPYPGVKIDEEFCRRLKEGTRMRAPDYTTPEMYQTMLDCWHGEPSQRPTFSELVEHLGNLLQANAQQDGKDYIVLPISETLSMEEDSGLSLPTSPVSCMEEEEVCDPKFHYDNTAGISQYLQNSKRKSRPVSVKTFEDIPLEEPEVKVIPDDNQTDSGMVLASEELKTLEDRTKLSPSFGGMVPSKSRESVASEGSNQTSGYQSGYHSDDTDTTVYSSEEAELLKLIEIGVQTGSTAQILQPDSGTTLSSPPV
Chain of ALK tyrosine kinase receptor (Q9UM73 whole entry): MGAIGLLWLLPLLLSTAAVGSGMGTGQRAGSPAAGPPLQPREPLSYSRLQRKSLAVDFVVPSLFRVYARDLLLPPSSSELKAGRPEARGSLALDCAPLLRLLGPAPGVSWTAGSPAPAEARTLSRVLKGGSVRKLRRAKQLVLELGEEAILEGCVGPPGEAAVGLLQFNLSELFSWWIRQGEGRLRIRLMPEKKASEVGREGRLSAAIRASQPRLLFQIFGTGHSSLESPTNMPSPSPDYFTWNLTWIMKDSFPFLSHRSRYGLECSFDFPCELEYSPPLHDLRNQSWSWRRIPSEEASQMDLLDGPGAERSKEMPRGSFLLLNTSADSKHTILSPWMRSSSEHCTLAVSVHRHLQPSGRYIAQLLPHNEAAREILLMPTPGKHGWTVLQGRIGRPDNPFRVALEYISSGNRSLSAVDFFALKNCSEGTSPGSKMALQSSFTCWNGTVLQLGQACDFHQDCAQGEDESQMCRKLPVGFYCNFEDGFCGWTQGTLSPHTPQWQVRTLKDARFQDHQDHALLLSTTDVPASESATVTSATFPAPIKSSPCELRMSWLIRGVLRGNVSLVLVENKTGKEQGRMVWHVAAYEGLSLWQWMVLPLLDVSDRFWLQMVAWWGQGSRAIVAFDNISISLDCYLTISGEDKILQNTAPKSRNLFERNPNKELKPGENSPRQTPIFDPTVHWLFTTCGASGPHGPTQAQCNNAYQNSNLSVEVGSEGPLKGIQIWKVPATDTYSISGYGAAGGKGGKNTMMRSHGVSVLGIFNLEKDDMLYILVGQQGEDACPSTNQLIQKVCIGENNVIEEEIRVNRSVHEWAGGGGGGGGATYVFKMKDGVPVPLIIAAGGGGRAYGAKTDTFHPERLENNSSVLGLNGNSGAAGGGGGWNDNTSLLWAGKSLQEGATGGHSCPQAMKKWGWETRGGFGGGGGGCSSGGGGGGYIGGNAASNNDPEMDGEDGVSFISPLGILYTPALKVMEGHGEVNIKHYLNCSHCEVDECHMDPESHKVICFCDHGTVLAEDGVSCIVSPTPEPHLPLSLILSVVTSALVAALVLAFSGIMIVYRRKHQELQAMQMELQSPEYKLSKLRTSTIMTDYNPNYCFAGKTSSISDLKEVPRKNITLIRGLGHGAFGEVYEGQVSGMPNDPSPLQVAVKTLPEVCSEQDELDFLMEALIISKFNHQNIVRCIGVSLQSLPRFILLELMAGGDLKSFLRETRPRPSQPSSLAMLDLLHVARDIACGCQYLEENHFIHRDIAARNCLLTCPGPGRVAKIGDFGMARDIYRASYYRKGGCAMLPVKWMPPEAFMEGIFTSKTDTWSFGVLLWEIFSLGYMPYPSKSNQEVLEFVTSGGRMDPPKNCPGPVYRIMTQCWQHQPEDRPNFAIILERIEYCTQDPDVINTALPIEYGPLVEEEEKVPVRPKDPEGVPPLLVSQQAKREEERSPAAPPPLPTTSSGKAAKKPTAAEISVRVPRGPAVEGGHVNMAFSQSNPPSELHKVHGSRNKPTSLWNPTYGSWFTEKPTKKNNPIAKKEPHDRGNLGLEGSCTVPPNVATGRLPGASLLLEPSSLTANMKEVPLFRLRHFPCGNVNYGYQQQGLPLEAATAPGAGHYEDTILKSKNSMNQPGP
Chain of Macrophage-stimulating protein receptor (Q04912 25-304 limits assumed): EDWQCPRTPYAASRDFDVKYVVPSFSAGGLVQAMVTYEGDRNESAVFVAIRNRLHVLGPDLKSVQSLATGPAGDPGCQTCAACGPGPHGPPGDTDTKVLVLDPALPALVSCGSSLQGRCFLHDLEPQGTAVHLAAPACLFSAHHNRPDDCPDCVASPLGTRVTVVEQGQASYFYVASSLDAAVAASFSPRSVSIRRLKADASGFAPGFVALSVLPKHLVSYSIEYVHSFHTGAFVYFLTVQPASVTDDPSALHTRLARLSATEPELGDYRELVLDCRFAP
Chain of Macrophage-stimulating protein receptor (Q04912 310-1400 limits assumed): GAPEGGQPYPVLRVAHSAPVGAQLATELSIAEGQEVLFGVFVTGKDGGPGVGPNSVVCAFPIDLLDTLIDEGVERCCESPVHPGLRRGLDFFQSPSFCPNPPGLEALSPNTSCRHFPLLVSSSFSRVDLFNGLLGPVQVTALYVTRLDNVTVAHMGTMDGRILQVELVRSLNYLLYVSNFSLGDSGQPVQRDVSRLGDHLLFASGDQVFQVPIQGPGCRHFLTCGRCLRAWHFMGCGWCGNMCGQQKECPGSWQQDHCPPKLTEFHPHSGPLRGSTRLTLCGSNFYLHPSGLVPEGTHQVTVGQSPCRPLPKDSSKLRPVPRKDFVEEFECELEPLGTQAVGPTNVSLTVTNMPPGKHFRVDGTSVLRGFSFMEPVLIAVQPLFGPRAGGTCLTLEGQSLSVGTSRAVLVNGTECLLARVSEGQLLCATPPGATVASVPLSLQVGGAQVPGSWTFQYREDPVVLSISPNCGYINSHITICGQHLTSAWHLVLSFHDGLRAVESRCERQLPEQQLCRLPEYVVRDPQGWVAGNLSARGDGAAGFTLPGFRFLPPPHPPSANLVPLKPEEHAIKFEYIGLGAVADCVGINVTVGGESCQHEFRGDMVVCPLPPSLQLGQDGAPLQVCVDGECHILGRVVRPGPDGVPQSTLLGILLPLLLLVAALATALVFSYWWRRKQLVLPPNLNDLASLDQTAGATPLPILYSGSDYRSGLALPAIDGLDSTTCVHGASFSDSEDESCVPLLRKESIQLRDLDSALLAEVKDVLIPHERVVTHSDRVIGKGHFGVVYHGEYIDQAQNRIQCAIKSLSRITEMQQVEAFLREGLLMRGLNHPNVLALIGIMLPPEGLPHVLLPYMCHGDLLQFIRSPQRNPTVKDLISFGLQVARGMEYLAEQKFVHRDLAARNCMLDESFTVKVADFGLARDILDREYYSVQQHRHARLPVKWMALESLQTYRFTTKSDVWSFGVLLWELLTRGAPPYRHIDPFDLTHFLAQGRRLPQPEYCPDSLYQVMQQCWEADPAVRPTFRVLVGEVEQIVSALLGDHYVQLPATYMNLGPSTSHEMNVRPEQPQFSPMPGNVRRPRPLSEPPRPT

pIC50 (Aurora kinase B [9]): < 5.00
pIC50 (Aurora kinase B [10]): 6.00
pIC50 [11]: 5.21
pIC50 (Aurora kinase B [12]): 7.96
pIC50 [13]: 5.89
pIC50 [14]: 7.60
pIC50 [15]: 7.40
pIC50 [16]: 7.14
solubility [17]: > 100 µM
bioavailability [18]: 72%
Cmax [19]: 2.5 µM
half-life [20]: 2.9 h
Vd [21]: 3.8 L/kg
hepatic extraction ratio at 40 min [22]: 0.7
hepatic extraction ratio at 40 min [23]: 0.7
Compound: C[C@@H](Oc1c(N)ncc2c(C3=CCN(C(N)=O)CC3)coc12)c1c(Cl)ccc(F)c1Cl
inhibition in vivo at 50 mg/kg [1]: 58%
inhibition in vivo at 100 mg/kg (Mus musculus [2]): > 90%
Activity (Salmonella typhimurium [3]): Non-toxic
Activity (Salmonella typhimurium [4]): Non-toxic
Activity (Mus musculus [5]): 0%
inhibition in vivo at 100 mg/kg [6]: 97%
inhibition in vivo at 50 mg/kg [7]: 79%
ED50 (MKN-45): 50 mg/kg
inhibition in vivo at 100 mg/kg (Mus musculus [8]): 45%
Activity (SNU-5): 31%

Reference: ChEMBL document CHEMBL2401646 (Bioorg Med Chem Lett, 2013)
